According to publication PMC4893628, “Chalcone-based Selective Inhibitors of a C4 Plant Key Enzyme as Novel Potential Herbicides” (Scientific Reports, 2016):
Like-named read-outs stand apart in the source and are kept apart here.

Key:
[1] = target: T1, F. trinervia PEPC (Flaveria trinervia, UniProt P30694); test: biochemical; format: biochemical
T1 construct: the full-length ppcA gene of PEPC from F. trinervia (EMBL-Bank X61304); made in house; host or cells: Escherichia coli BL21(DE3)
T1 sequence (P30694 1-966): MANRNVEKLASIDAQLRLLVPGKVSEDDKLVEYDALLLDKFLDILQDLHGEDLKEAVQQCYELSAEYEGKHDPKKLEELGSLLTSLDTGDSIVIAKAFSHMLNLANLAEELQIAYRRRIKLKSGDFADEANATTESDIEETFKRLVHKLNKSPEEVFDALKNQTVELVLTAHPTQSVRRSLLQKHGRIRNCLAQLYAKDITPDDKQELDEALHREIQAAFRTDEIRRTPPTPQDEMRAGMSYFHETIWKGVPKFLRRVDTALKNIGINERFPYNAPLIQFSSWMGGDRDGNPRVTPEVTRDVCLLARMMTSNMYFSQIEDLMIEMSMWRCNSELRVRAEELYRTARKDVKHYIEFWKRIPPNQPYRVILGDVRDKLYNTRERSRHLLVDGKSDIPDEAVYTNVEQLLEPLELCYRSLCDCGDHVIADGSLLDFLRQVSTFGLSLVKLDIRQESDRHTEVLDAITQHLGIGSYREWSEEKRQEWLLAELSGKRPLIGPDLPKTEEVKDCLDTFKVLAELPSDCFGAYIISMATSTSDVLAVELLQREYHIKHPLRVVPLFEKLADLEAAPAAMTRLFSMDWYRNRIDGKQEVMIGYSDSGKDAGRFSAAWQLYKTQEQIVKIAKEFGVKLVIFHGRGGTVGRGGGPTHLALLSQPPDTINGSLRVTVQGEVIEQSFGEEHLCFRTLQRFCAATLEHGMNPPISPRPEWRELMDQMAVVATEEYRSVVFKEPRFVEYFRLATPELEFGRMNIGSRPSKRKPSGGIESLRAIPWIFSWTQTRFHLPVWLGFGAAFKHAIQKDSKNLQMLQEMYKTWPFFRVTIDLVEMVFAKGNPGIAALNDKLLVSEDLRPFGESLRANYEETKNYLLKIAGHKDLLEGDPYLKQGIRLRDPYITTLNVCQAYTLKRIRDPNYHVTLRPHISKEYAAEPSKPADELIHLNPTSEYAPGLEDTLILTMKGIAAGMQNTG

[2] = test system: Corynebacterium glutamicum ATCC13032; test: Bacterial growth in microscale cultivation, C. glutamicum; format: cell-based; conditions: relative to control; for activity at 0.3 µM / activity at 3 µM / activity at 30 µM: Corynebacterium glutamicum
In short: (§1)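 In a BioLector microscale system shaken at 1200 rpm, growth was tracked by backscatter at 620 nm, and final signal, growth rate (h⁻¹) and lag-phase length were scored against DMSO-only controls. Starting OD600 was 0.5, or 0.25 for B. subtilis. Inhibitors came from DMSO stocks, with trans-chalcone capped at 400 μM and 2'-hydroxychalcone at 100 μM.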

[3] = test system: Bacillus subtilis 168; test: Bacterial growth in microscale cultivation, B. subtilis; format: cell-based; conditions: relative to control
In short: as §1

O=C(/C=C/c1cc(O)c(O)c(O)c1)c1ccc(O)cc1O [Compound 9, 2′,4′,3,4,5-Pentahydroxychalcone]
Selectivity C4/C3 ([1]; C4 PEPC over C3 isoform): 8.1 fold
IC50 ([1]; C4 PEPC, read-out: IC50 F. trinervia PEPC): 4.2 ± 1.4 µM
activity at 0.3 µM ([2]; ATCC13032, complex medium, 0.3 µM, read-out: Final Backscatter): 99.6%
activity at 0.3 µM ([2]; ATCC13032, complex medium, 0.3 µM, read-out: Growth rate): 104%
activity at 3 µM ([2]; ATCC13032, complex medium, 3 µM, read-out: Final Backscatter): 102%
activity at 3 µM ([2]; ATCC13032, complex medium, 3 µM, read-out: Growth rate): 111%
activity at 30 µM ([2]; ATCC13032, complex medium, 30 µM, read-out: Final Backscatter): 96.7%
activity at 30 µM ([2]; ATCC13032, complex medium, 30 µM, read-out: Growth rate): 112%
activity at 0.3 µM ([2]; ATCC13032, minimal medium, 0.3 µM, read-out: Final Backscatter): 99.9%
activity at 0.3 µM ([2]; ATCC13032, minimal medium, 0.3 µM, read-out: Growth rate): 104%
activity at 3 µM ([2]; ATCC13032, minimal medium, 3 µM, read-out: Final Backscatter): 96.9%
activity at 3 µM ([2]; ATCC13032, minimal medium, 3 µM, read-out: Growth rate): 103%
activity at 30 µM ([2]; ATCC13032, minimal medium, 30 µM, read-out: Final Backscatter): 97.7%
activity at 30 µM ([2]; ATCC13032, minimal medium, 30 µM, read-out: Growth rate): 97.3%
Lag Phase ([2]; complex medium, 0.3 µM): 98,5%
Lag Phase ([2]; complex medium, 3 µM): 98,0%
Lag Phase ([2]; complex medium, 30 µM): 94,5%
Lag Phase ([2]; minimal medium, 0.3 µM): 98,6%
Lag Phase ([2]; minimal medium, 3 µM): 98,6%
Lag Phase ([2]; minimal medium, 30 µM): 98,6%
activity at 0.3 µM ([3]; Bacillus subtilis, 168, complex medium, 0.3 µM, read-out: Final Backscatter): 100%
activity at 0.3 µM ([3]; Bacillus subtilis, 168, complex medium, 0.3 µM, read-out: Growth rate): 111%
activity at 3 µM ([3]; Bacillus subtilis, 168, complex medium, 3 µM, read-out: Final Backscatter): 99.7%
activity at 3 µM ([3]; Bacillus subtilis, 168, complex medium, 3 µM, read-out: Growth rate): 112%
activity at 30 µM ([3]; Bacillus subtilis, 168, complex medium, 30 µM, read-out: Final Backscatter): 98.6%
activity at 30 µM ([3]; Bacillus subtilis, 168, complex medium, 30 µM, read-out: Growth rate): 104%
activity at 0.3 µM ([3]; Bacillus subtilis, 168, minimal medium, 0.3 µM, read-out: Final Backscatter): 104%
activity at 0.3 µM ([3]; Bacillus subtilis, 168, minimal medium, 0.3 µM, read-out: Growth rate): 99.6%
activity at 3 µM ([3]; Bacillus subtilis, 168, minimal medium, 3 µM, read-out: Final Backscatter): 103%
activity at 3 µM ([3]; Bacillus subtilis, 168, minimal medium, 3 µM, read-out: Growth rate): 101%
activity at 30 µM ([3]; Bacillus subtilis, 168, minimal medium, 30 µM, read-out: Final Backscatter): 107%
activity at 30 µM ([3]; Bacillus subtilis, 168, minimal medium, 30 µM, read-out: Growth rate): 90.7%
Lag Phase ([3]; complex medium, 0.3 µM): 100,0%
Lag Phase ([3]; complex medium, 3 µM): 100,0%
Lag Phase ([3]; complex medium, 30 µM): 97,4%
Lag Phase ([3]; minimal medium, 0.3 µM): 91,7%
Lag Phase ([3]; minimal medium, 3 µM): 98,8%
Lag Phase ([3]; minimal medium, 30 µM): 94,1%
